Like-named read-outs stand apart in the source and are kept apart here.

Assay [1] has as its system store-operated Ca^2+ entry in PLP-B lymphocytes. In words: Store-operated Ca2+ entry after thapsigargin depletion of ER Ca2+ stores in PLP-B lymphocytes. The class given is cell-based. The note with it: for inhibition at 0.1 µM / inhibition at 1 µM / inhibition at 10 µM / inhibition at 50 µM / inhibition at 100 µM: PLP-B lymphocytes, % of inhibition (−) or activation. The protocol:
The effects of the molecules developed were tested on PLP-B lymphocytes. Store-operated Ca^2+ entry was induced by depletion of Endoplasmic Reticulum Ca^2+ stores (ER Ca^2+ stores) with thapsigargin (Tg) in a Ca^2+-free medium and measured following the addition of 1.8 mM of CaCl2) in the extracellular medium. The results are compared to the results obtained for known SOCE inhibitors SKF-96365, GSK-7975A, Synta 66.

For another assay, the system named is JOK cells. The experiment in a line: JOK cell cycle analysis (PI staining, flow cytometry). Type of assay: cell-based. As for the experimental part:
Cell Cycle Analysis. JOK cells were incubated with or without test compounds (GSK-7975-A, SKF-93365 and 6αa) for 48 hours and then washed with cold PBS and fixed with 70% ethanol for 30 minutes at room temperature. Cell cycle was analyzed using propidium iodide (PI). Cell-cycle distribution was determined by PI-staining using flow cytometry and analyzed by Kaluza 1.3.
(Flow cytometry measures light scatter and fluorescence of single cells or particles in a stream.)

[2] abbreviates: Lymphocyte, DMSO control 100%, read-out: Effect on amplitude of SOCE Peak.
Where [3] appears, read: Lymphocyte, thapsigargin (Tg) peak, read-out: Effect on amplitude of Tg Peak.

Usually IC50 stands for the concentration needed to halve the response being measured. Turning to `COc1ccc(CCOc2ccc(CCn3cnc4ccccc43)cc2)cc1` [6αa DAD 3-473, 1-[4-(4-Methoxyphenethoxy)phenethyl]-1H-benzo[d]imidazole], in assay [1] (setting [2]), the inhibition at 0.1 µM is 3%, the inhibition at 1 µM was -2%, the inhibition at 10 µM was 24% and the inhibition at 50 µM is 79%. Also, in assay [1] (setting [2]), the inhibition at 100 µM stood at 81%. In addition, in assay [1] (setting [3]), the inhibition at 0.1 µM is -5%, the inhibition at 1 µM was -7%, the inhibition at 10 µM was determined as 5% and the inhibition at 50 µM was determined as 5%. Further, the inhibition at 100 µM in assay [1] (setting [3]) came to 2%. The molecule further had an IC50 in assay [1] (Lymphocyte, SOCE in PLP-B lymphocytes, average of three assays, ±0.5 μM) of 15.4 µM. The “effectiveness as modulator that inhibits SOCE without inhibiting Ca2+ release from ER stores” value in assay [1] (comparison of the series tested) is “best candidate”. Further, the cell cycle entry in the assay on JOK cells is on record as “affects cell cycle”.

The values above are taken from patent US12686664B2, “SOCE inhibitors and therapeutic uses thereof” (Institut National de la Santé et de la Recherche Médicale …, priority 2020, dated 2026).
